Experimental data published in patent US7928138B2, “Marine actinomycete taxon for drug and fermentation product discovery” (Regents of the University of California, priority 2000, dated 2011).
In brackets after ≈: the same amount, converted by molar mass.

Tested on: HCT-116 human colon carcinoma cell line
Assay: Cytotoxicity against human colon carcinoma cell line by MTS assay
Format: cell-based
Settings: pure compound
Experimental: Assay for the inhibition of growth of colon carcinoma cells and of ovarian cancer cells in vitro. The cytotoxicity of extracts from cells or culture media were assessed in vitro against the human colon carcinoma cell line HCT116 and the human ovarian carcinoma cell line A2780 by MTS assay. Cells were plated at 4,000 cells per well in 96 well microliter plates and, after 24 hours, the extract (dissolved in DMSO or other appropriate solvent) was added and serially diluted. The cells were incubated with the compound at 37° C. for 72 hours, then the tetrazolium dye MTS was added to a final concentration of 333 μg/ml and the electron coupling agent phenazine methosulfate was added to a final concentration of 25 μM. Once reduced, MTS is converted into a […] blue crystal formazan and that was read at an absorbance at 490 nm with a microplate reader. As dead cells are unable to reduce MTS, the amount of formazan is correlated to the number of viable cells. The IC50, the drug concentration required to inhibit proliferation of 50% of the cells, was used as a measure of efficacy.

SMILES: C[C@@]12OC(=O)[C@]1([C@@H](O)[C@@H]1C=CCCC1)NC(=O)[C@@H]2CCCl [salinosporamide A]
- IC50 against the HCT-116 human colon carcinoma cell line: 0.01 µg/mL (≈ 0.0319 µM)
